# Assay results from ChEMBL document CHEMBL2073818, “St John's Wort induces intestinal P-glycoprotein/MDR1 and intestinal and hepatic CYP3A4” (Clin Pharmacol Ther, 2000).
# Target: ATP-dependent translocase ABCB1 (Homo sapiens, UniProt P08183)
# Test: TP_TRANSPORTER: Western in vivo human
# Format: functional, organism-based
# Chain of ATP-dependent translocase ABCB1 (P08183 whole entry): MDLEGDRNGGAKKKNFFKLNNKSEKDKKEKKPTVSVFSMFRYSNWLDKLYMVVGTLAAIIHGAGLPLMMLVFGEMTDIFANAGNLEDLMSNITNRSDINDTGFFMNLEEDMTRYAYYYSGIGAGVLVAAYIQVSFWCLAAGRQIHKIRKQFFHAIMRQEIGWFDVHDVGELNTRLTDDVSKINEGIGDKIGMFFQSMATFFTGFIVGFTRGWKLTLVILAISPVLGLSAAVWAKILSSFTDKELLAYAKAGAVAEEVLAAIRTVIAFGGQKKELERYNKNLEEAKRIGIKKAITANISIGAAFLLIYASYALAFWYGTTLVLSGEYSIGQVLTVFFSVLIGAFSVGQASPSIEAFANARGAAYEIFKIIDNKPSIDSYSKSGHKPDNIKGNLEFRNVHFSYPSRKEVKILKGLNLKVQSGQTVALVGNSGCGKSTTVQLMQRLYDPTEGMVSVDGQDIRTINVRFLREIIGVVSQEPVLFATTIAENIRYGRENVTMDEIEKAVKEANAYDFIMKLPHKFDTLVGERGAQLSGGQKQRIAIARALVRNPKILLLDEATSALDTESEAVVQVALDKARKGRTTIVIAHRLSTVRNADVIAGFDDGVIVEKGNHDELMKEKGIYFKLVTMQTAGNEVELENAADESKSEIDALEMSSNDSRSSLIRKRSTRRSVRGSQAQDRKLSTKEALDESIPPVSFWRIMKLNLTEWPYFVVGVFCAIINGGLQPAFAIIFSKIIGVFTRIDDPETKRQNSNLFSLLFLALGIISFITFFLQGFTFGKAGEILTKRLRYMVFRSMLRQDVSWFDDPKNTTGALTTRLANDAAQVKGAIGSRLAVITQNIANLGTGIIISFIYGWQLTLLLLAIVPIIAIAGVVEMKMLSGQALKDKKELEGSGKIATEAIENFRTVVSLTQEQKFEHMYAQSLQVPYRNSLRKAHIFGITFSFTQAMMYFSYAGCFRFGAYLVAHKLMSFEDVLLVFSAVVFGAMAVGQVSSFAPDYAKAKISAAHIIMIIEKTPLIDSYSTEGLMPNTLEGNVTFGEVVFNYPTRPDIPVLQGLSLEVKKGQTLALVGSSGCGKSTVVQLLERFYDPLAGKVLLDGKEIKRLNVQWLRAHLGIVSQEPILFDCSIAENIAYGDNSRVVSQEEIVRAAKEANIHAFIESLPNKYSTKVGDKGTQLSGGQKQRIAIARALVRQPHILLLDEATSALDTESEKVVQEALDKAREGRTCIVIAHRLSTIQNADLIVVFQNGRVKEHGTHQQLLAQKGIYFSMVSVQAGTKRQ
substance,measurement,value
ST. JOHN'S WORT,Activity,inducer [+]
